Patent publication US20110230536A1, “PHENYLPYRAZOLE INHIBITORS OF STORE OPERATED CALCIUM RELEASE” (CalciMedica, Inc., priority 2008, published 2011)

Assays:
[1] = target: STIM1 and Orai1 in HEK293 cells (Homo sapiens, UniProt Q96D31); conditions: HEK293 cells coexpressing STIM1 and Orai1; cited from earlier work
JR251 or RBL cells = experiment: Fluorescence-based assay of store-operated calcium entry (JR251 or RBL cells); format: cell-based; conditions: in either JR251 or RBL cells, or both
Experimental: Fluorescence-based assays are used for screening the compounds described herein, such as compounds of Formulas (I) and (II) which modulate intracellular calcium. […]
B. Fluorescence-based Assay of Store-Operated Calcium Entry in RBL-2H3 Cells.
RBL-2H3 cells are obtained from ATCC and maintained in complete medium with 10% FBS at 37° C./6% CO2.
The day prior to performing the assay, RBL-2H3 cells are plated in 50 μL of complete medium in a 384 well plate. Cells are grown at 37° C./6% CO2 overnight and grow to 50-60% confluence by the next day. On the assay day, 1.5 μM Fluo-4-AM dye (Invitrogen) in complete medium is added and incubated for 1 hour at RT. Cells are washed twice in Ca^2+-free HBSS buffer and 35 μL Ca^2+-free HBSS buffer is added to each well. 10 μL of a test compound prepared in a Ca^2+-free HBSS solution at 4.5× of the desired concentration is added to a well and incubated for 5 minutes at RT. 10 μL of thapsigargin prepared in a Ca^2+-free HBSS solution at 5.5× of the desired concentration (5.5 uM) is added to each well and incubated for an additional 25 minutes. The initial baseline fluorescence signal is measured with a FLIPR^384 (Molecular Devices) plate reader. 5 μL of 12× calcium in HBSS (12 mM) is added and changes in cellular fluorescence are measured with the FLIPR^384 plate reader. In each well, the change in the fluorescent signal as a function of time due to calcium entry into the cell is determined by calculating the difference between the fluorescent signal measured 7 seconds after calcium addition and the initial baseline fluorescence signal at time zero (t=0). This parameter is designated Upslope. The IC50 value is calculated as the concentration at which 50% of the Upslope is inhibited. […]

[2] = test system: Jurkat cells and colon cancer cells; conditions: cited from earlier work
[3] = test system: Jurkat cells and colon cancer cells; conditions: cited from earlier work; remark: listed apart in the source

Sequence of STIM1 and Orai1 in HEK293 cells (Q96D31 whole entry): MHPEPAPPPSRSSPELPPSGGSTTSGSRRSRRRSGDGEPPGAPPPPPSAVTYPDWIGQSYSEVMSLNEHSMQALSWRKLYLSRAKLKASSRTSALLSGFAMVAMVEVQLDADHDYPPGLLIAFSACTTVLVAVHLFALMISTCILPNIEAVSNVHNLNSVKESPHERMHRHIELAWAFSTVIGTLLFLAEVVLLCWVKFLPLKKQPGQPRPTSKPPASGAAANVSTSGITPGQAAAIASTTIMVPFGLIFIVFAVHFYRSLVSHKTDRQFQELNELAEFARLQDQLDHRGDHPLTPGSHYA

Row | Compound | IC50 (JR251 or RBL cells) | also measured
1 | NCCOB(c1ccccc1)c1ccccc1 [2-aminoethoxydiphenylborate] |  | block of store-dependent Ca2+ entry [1]: completely blocked
2 | Cc1nnsc1C(=O)Nc1ccc(-n2nc(C(F)(F)F)cc2C(F)(F)F)cc1 [BTP-2] |  | inhibition of SOCE [2]: inhibits; inhibition of proliferation [3]: inhibits
3 | Cc1cc(C(F)(F)F)nn1-c1ccc(C(=O)Nc2ccccc2Cl)cc1[N+](=O)[O-] [N-(2-chlorophenyl)-4-(5-methyl-3-(trifluoromethyl)-1H-pyrazol-1-yl)-3-nitrobenzamide] | < 10 µM | 
4 | COc1ccc(C(=O)Nc2ccc(-n3nc(C)cc3C(F)(F)F)c(N)c2)cc1 [N-(3-amino-4-(3-methyl-5-(trifluoromethyl)-1H-pyrazol-1-yl)phenyl)-4-methoxybenzamide] | < 10 µM | 
5 | COc1ccc(C(=O)Nc2ccc(-n3nc(C(F)(F)F)cc3C)c(N)c2)cc1 [N-(3-amino-4-(5-methyl-3-(trifluoromethyl)-1H-pyrazol-1-yl)phenyl)-4-methoxybenzamide] | < 10 µM | 
6 | COc1ccc(C(=O)Nc2ccc(-n3nc(-c4ccccc4)cc3C)c(N)c2)cc1 [N-(3-amino-4-(5-methyl-3-phenyl-1H-pyrazol-1-yl)phenyl)-4-methoxybenzamide] | < 10 µM | 
7 | Cc1cc(-c2ccccc2)nn1-c1ccc(NC(=O)c2cccs2)cc1N [N-(3-amino-4-(5-methyl-3-phenyl-1H-pyrazol-1-yl)phenyl)thiophene-2-carboxamide] | < 10 µM | 
8 | Cc1cc(-c2ccccc2)nn1-c1ccc(NC(=O)c2cccs2)cc1[N+](=O)[O-] [N-(4-(5-methyl-3-phenyl-1H-pyrazol-1-yl)-3-nitrophenyl)thiophene-2-carboxamide] | < 10 µM | 
9 | COc1cc(C(=O)Nc2ccc(Cl)cc2)ccc1-n1nc(C(F)(F)F)cc1C [N-(4-chlorophenyl)-3-methoxy-4-(5-methyl-3-(trifluoromethyl)-1H-pyrazol-1-yl)benzamide] | < 10 µM | 

The next lines start with results.

Row | IC50 (JR251 or RBL cells) | Compound | also measured
10 | < 10 µM | Cc1cc(C(F)(F)F)n(-c2ccc(C(=O)Nc3ccccc3Cl)cc2N)n1 [3-amino-N-(2-chlorophenyl)-4-(3-methyl-5-(trifluoromethyl)-1H-pyrazol-1-yl)benzamide] | 
11 | < 10 µM | Cc1cc(C(F)(F)F)nn1-c1ccc(C(=O)Nc2ccccc2Cl)cc1N [3-amino-N-(2-chlorophenyl)-4-(5-methyl-3-(trifluoromethyl)-1H-pyrazol-1-yl)benzamide] | 
12 | < 10 µM | Cc1cc(C(F)(F)F)nn1-c1ccc(C(=O)Nc2ccc(Cl)cc2)cc1N [3-amino-N-(4-chlorophenyl)-4-(5-methyl-3-(trifluoromethyl)-1H-pyrazol-1-yl)benzamide] | 
13 | < 10 µM | Cc1cc(C(F)(F)F)n(-c2ccc(NC(=O)c3ccc(Cl)cc3)cc2[N+](=O)[O-])n1 [4-Chloro-N-(4-(3-methyl-5-(trifluoromethyl)-1H-pyrazol-1-yl)-3-nitrophenyl)benzamide] | 
14 | < 10 µM | CCc1cc(CC)n(-c2ccc(NC(=O)c3ccc(Cl)cc3)cc2[N+](=O)[O-])n1 [4-chloro-N-(4-(3,5-diethyl-1H-pyrazol-1-yl)-3-nitrophenyl)benzamide] | 
15 | < 10 µM | COc1ccc(C(=O)Nc2ccc(-n3nc(C)cc3C(F)(F)F)c([N+](=O)[O-])c2)cc1 [4-methoxy-N-(4-(3-methyl-5-(trifluoromethyl)-1H-pyrazol-1-yl)-3-nitrophenyl)benzamide] | 
16 | < 10 µM | COc1ccc(C(=O)Nc2ccc(-n3nc(C(F)(F)F)cc3C)c([N+](=O)[O-])c2)cc1 [4-methoxy-N-(4-(5-methyl-3-(trifluoromethyl)-1H-pyrazol-1-yl)-3-nitrophenyl)benzamide] | 
17 | < 10 µM | COc1cc(C(=O)Nc2ccccc2Cl)ccc1-n1nc(C)cc1C(F)(F)F [N-(2-chlorophenyl)-3-methoxy-4-(3-methyl-5-(trifluoromethyl)-1H-pyrazol-1-yl)benzamide] | 
18 | < 10 µM | COc1cc(C(=O)Nc2ccccc2Cl)ccc1-n1nc(C(F)(F)F)cc1C [N-(2-chlorophenyl)-3-methoxy-4-(5-methyl-3-(trifluoromethyl)-1H-pyrazol-1-yl)benzamide] | 
19 | < 10 µM | Cc1cc(C(F)(F)F)n(-c2ccc(C(=O)Nc3ccccc3Cl)cc2[N+](=O)[O-])n1 [N-(2-chlorophenyl)-4-(3-methyl-5-(trifluoromethyl)-1H-pyrazol-1-yl)-3-nitrobenzamide] | 
